91 molecules from a melting point compilation (Tetko et al.; mined from patent text by program, amines drawn as free bases though some values may be those of a salt) can be followed below.

Each structure is given as a SMILES string.

For the molecule `CCN(CC)CCNC(=O)c1cc(Cl)c(N)cc1OCCN`, the melting point (as a rule, the temperature of the solid-liquid transition) was in the range of 97 to 99 °C. `Cc1cc(C)c(C(CO)c2ccc(C(C)C)cc2)c(O)c1C` (stereo unspecified) registered a melting point of 101 to 102 °C. The same measure for `COC(=O)C1CCC2(C)C(=CC(O)C3C2CCC2(C)C(O)CCC32)C1` (stereo unspecified): 150 to 152 °C; for `O=C1C(c2ccccc2)=C(c2ccccc2)C(=O)N1Cc1cccc(F)c1`: 107 to 108 °C. Next, `O=C(NC(=O)c1c(F)cccc1F)Nc1cc(F)c(C(F)(F)F)c(F)c1`: 231 °C; `CC(=O)c1cc(C(C)=O)c(O)c(C(C)C)c1O`: 132 to 133 °C; `O=c1[nH]c2ccc3c(c2[nH]c1=O)NCCC3`: over 300 °C.

With `Cc1cc(-c2nc[nH]n2)ccc1-c1cnc2[nH]c(=O)n(CCC3CCOCC3)c2n1`, the melting point is 258 to 260 °C. The same measure for `CC(=O)OC1CSC(Oc2cccc(-c3cccnc3C)c2)C(OC(C)=O)C1OC(C)=O` (stereo unspecified): 153 °C; for `CC(C)(C)OC(=O)NC(COc1noc2ccc(Cl)cc12)Cc1cc(O)no1` (stereo unspecified): 159 to 161 °C.

In the case of `CCOC(=O)C(NC(C)=O)(C(=O)OCC)c1ccc(Cl)cn1`, the melting point lay within 89 to 90 °C. The same measure for `Cc1ccc(O)c(NC(=O)c2ccc(OCCCCc3ccccc3)cc2)c1`: 138 to 140 °C. The same measure for `CC(C)CCOCc1cc(-n2nc(C(N)=O)nc2-c2ccccc2F)ccc1Cl`: 113 to 115 °C; for `CCCCn1c(=O)n(O)c(=O)c2cc(F)c(N3CCCC3)nc21`: 153 to 155 °C; for `N#CC(CNC(=O)Nc1cncnc1)C(=O)O` (stereo unspecified): 183 °C. `Cc1ccc(C(=O)Nc2cccc(C(F)(F)F)c2)cc1Br` displayed a melting point of 157 to 158 °C. `CC1(C)OC(=S)Nc2ccc(-c3cccc(Cl)c3)cc21` had a melting point of 183 to 184 °C. Next, `CCOC(=O)NN=C(c1ccc(Cl)cc1)c1ccc(OC(=O)CC)cc1`: 120 to 146 °C. Next, `NS(=O)(=O)OCCOc1ccccc1`: 89 to 91 °C. Next, `Cn1c(SCC(=O)C23CC4CC(CC(C4)C2)C3)nnc1-c1cccs1`: 156 to 157 °C. Turning to `Cc1nc(C)nc(NC(=O)NS(=O)(=O)c2ccccc2C)n1`, the melting point fell in the range of 141 to 145 °C.

`O=S1(=O)N[C@@H](c2cccc(Br)c2)c2ccccc21`: the melting point was determined as 163 °C. The same measure for `CCNC(=O)N[C@H]1CC[C@H](CCN2CCN(c3cccc4c3CCC4)CC2)CC1`: 198 to 200 °C; for `CCOC(=O)c1ccc(Cc2ccc(O)cc2)cn1`: 153 to 156 °C. The same measure for `CCN1CCN(CC)c2cc(N)ccc2C1=O`: 140 to 141 °C.

Take `CCCCOc1cc(C=CC(=O)O)n(Cc2ccc(Cl)cc2Cl)n1`: the melting point lay within 176 to 179 °C. In turn, `CN(C(=O)c1ccccc1NC(=O)N[C@@H](Cc1ccc(NC(=O)c2c(Cl)cccc2Cl)cc1)C(=O)O)c1ccccc1` had a melting point of 178 °C. Molecule `Nc1ccc2c(c1)SC1=NCCCN12` showed a melting point of 186 °C. Consider `O=C(Nc1nc(-c2ccccc2)cs1)C(=O)OC1CCCCC1`, for which the melting point was in the range of 160 to 161 °C.

The molecule `Cc1cn(-c2ccc(C(=N)N)cc2)c(=O)n1-c1ccc(CCC(=O)OC(C)C)cc1` gave a melting point of 246 to 249 °C. For `N#CNC=Nc1ccc(-c2cc[nH]n2)cc1`, the melting point lay within 223 to 224 °C.

The molecule `CCn1cnc2c(Nc3ccc(C(F)(F)F)cc3)nc(NCCO)nc21` came in with a melting point of 191 to 192 °C. Take `CC(C)(C)c1nc(-c2ccccc2)[nH]c1C(C)(C)C`: the melting point was in the range of 156 to 158 °C. In turn, `CCOC(=O)C1=C(C)NC(c2nccn2C)=NC1c1ccc(F)cc1` (stereo unspecified) displayed a melting point of 134 to 136 °C. The same measure for `Cc1nn(-c2ccccn2)cc1COc1ccc(CC(=O)O)cc1`: 161 to 162 °C; for `COc1ccc2c(C(=O)C3CSC(c4cccnc4)N3)c[nH]c2c1` (stereo unspecified): 86 to 88 °C. Next, `Cc1oc(-c2ccccc2)nc1COc1ccccc1C=CC=Cc1nnn[nH]1`: 192 to 193 °C; `Nc1cc(-c2noc(-c3cnn4c(C(F)(F)F)cc(-c5ccc(Cl)c(Cl)c5)nc34)n2)ccn1`: 262 °C; `O=C(Nc1ccc(F)cc1)OC1CCCNC1` (stereo unspecified): 147 to 148 °C. The same measure for `CCCN(CCC)C1COc2cccc(C(=O)c3ccc(F)cc3)c2C1` (stereo unspecified): 60 to 62 °C. Consider `OCC1(CO)CN(Cc2ccccc2)C1`, for which the melting point lay within 86 to 87 °C.

Regarding `FC(F)(F)c1cccc(Nc2ccccc2-c2n[nH]c(=S)[nH]2)c1`, the melting point lay in the range of 275 to 279 °C. Next, `Nc1c(Cl)cc(C(O)CNCCCCCCOCCCCc2ncccn2)cc1Cl` (stereo unspecified): 77 to 79 °C. `COCc1cc(O)cc2cc(-c3ccc(O)cc3)oc12` had a melting point of 186 to 188 °C. The same measure for `CS(=O)(=O)Oc1cccc2c1CCCN2`: 74 to 76 °C.

The molecule `Cc1cc(-c2cccc(C3=Nc4cc(O)c(-c5ccccc5F)cc4NC(=O)C3)c2)on1` came in with a melting point of 237 °C. With `O=C1N=C(N2CCOCC2)SC1=Cc1ccc(F)c(-c2ccc(O)c(C34CC5CC(CC(C5)C3)C4)c2)c1`, the melting point was in the range of 338 to 343 °C.

On to `O=C1CC2(CCCC2)C(=O)N1c1ccncc1`, for which the melting point was 100 to 103 °C. Regarding `Cc1c(C(=O)Nc2ccc(N3CCN(CCO)CC3)c(C#N)c2)cnn1-c1ccc(F)c(Cl)c1`, the melting point worked out at 191 °C. The same measure for `CCOC(=O)c1ccc(COc2cccc(O)c2C=O)cc1`: 105 to 107 °C; for `COC(=O)c1ccc(OCC2CC(=O)N(c3ccc(OCCO)cc3)C2)cc1` (stereo unspecified): 129 to 131 °C. Take `Cc1cc(-c2cc(C(F)F)nn2-c2ccc(S(C)(=O)=O)c(F)c2)ccc1-c1nccs1`: the melting point was 123 °C. The same measure for `COC(=O)c1cc(N(C)C)cc(N(C)C)c1`: 86 to 88 °C. The molecule `O=C(OCc1ccccc1)c1ccc(OC(=O)c2ccc(O)c(C34CC5CC(CC(C5)C3)C4)c2)cc1` gave a melting point of 164 to 165 °C.

As to `COc1ccc([C@H]2SC=C(c3ccccc3)N(CCN(C)C)C(=O)[C@H]2OC(C)=O)cc1`, the melting point is 149 to 151 °C.

With `CN(C(=O)OC(C)(C)C)c1cc(Oc2ccc(-c3ccccc3)cc2)ccc1[N+](=O)[O-]`, the melting point was 166 to 167 °C. The same measure for `COC(=O)c1ccc(Cn2c(=O)c3cc(C(=O)NCc4ccc(OC)cc4)sc3n(C)c2=O)cc1OC`: 201 to 203 °C; for `COc1cc2c(cc1OCc1ccccc1)CCCNC2=O`: 192 to 193 °C.

`CC(=O)C(C)(C(C)=O)C(C)=O` returned a melting point of 33 to 35 °C. Next, `CCOc1cc(OC)cc(OC(=O)CC)c1C(=O)C=Cc1ccc(OC)cc1`: 77.5 °C. `O=C(O)Cc1ccc(CCN2CCNCC2)cc1` gave a melting point of 238 to 239 °C. The same measure for `COC(=O)CN(C)C(=O)c1ccc(OC)c2cc(OC)ccc12`: 105 to 107 °C; for `CN(C)CCCOc1c(Cl)cc(-c2nnc(CSCCOc3ccccc3)o2)cc1Cl`: 95 to 99 °C; for `O=Cc1ccc2c(c1)NC(=O)CO2`: 220 to 222 °C.

In the case of `CC#CCOc1ccc(S(=O)(=O)N(C)C(C(=O)NO)c2ccc(OCCCNC(=O)OCC)cc2)cc1` (stereo unspecified), the melting point lay in the range of 60 to 62 °C.

In turn, `O=[N+]([O-])c1cc(F)c(O)c(F)c1` showed a melting point of 98.4 to 101 °C.

On to `O=c1cc(-c2ccc(OCc3ccccc3)c(OCc3ccccc3)c2)oc2ccc(OCC3CO3)cc12` (stereo unspecified), for which the melting point lay within 147 to 149 °C.

`N#Cc1ccc(OCC(NNC(=O)Nc2ccc(OC(F)(F)F)cc2)c2ccccc2)cc1` (stereo unspecified) displayed a melting point of 176 °C. Turning to `CCc1c(C(=O)C(N)=O)c2c(OCC(=O)O)cccc2n1Cc1ccccc1`, the melting point was 230 to 234 °C. The same measure for `N#C/C=C/c1coc2ccccc2c1=O`: 192 to 194 °C. The molecule `O=C(Cc1ccc(I)cc1)NC[C@H]1CCCN1CCF` came in with a melting point of 96 °C. The same measure for `O=C1NC(=O)C(Nc2ccc(CCNC[C@H](O)COc3ccc(O)cc3)cc2)S1` (stereo partly specified): 165 °C; for `O=c1c2c([nH]c3nc(NCc4ccccc4)nn13)CCCS2`: 332 to 335 °C. `O=C(Nc1ccc2ccc(Cl)nc2n1)C1=CSCCS1` showed a melting point of 237 °C. Next, `OC[C@H]1CCCC[C@H]1Nc1nccc(-n2nnc3ccccc32)n1`: 206 to 208 °C; `CCOc1nn(Cc2ccnc(OCc3cn4c(Cl)cccc4n3)c2)cc1CCC(=O)O`: 160 to 161 °C; `CCCN(CCC)C(=O)CNc1nc(-c2ccccc2)ncc1N`: 120 to 122 °C. The same measure for `CSCc1c(C(F)(F)F)nn(C)c1O`: 123 to 124 °C; for `CCN1CSC(=Cc2cc(C(C)(C)C)c(O)c(C(C)(C)C)c2)C1=O`: 169 to 172 °C; for `O=C(CCCCSc1ccc(O)cc1)N1CCOCC1`: 112 to 113 °C. In turn, `O=c1c2c([nH]n1-c1cc(OCC3CCCSC3)c(Cl)cc1F)CCCC2` (stereo unspecified) displayed a melting point of 96 to 100 °C. Next, `CC[C@H](CO)NC(=O)c1ccc(C(=O)N2CCN(c3ncccc3NC(C)C)CC2)nc1`: 85 to 88 °C; `COc1ccc(-n2c3ccccc3c3cc(C(C#N)=C(C#N)c4cc(C(F)(F)F)cc(C(F)(F)F)c4)ccc32)cc1`: 170 to 172 °C. Next, `CN(C)CCCCCOc1ccc(-c2nnc(CSCCOc3ccccc3)o2)cc1`: 51 to 54 °C; `O=C1NCc2c1cc1ccc3c(c1c2-c1ccc(OCc2ccccc2)cc1)OCO3`: 257 to 260 °C; `CCC1(CC)C(=O)c2cc(O)c(C)c(C)c2C1=O`: 141 to 142 °C. With `COC(=N)CCSCc1csc(N=C(N)N)n1`, the melting point amounted to 126 °C.

`O=C1NCCCCC1NC(c1ccccc1)(c1ccccc1)c1ccccc1` (stereo unspecified): the melting point is 189 °C.

The molecule `CC1=C(C(=O)OC(C)(C)C)C(c2ccccc2)C(C(=O)OC(C)(C)C)=C(C)N1` registered a melting point of 187 to 188 °C. In turn, `CN1C(=O)[C@@H](NC(=O)c2ccccc2I)N=C(c2ccccc2)c2ccccc21` had a melting point of 115 to 120 °C. The molecule `O=C(O)c1cccc(NCCOc2cccc3ccccc23)c1` returned a melting point of 150 to 152 °C.
